The structures appear in SMILES notation. A value given as a limit tells only on which side of the number the result lay.

Assay [1] deals with Tyrosine-protein kinase Lck (Homo sapiens, UniProt P06239).
The test system of the next assay is A-375. As to the kind of experiment: Antiproliferative activity against human A375 cells. It is filed as functional, cell-based.
Assay [2] can be described thus: Inhibition of serum-stimulated Akt kinase phosphorylation in human A375 cells. It is filed as cell-based. To be noted: A-375.
Assay [3] can be described thus: Inhibition of mouse CaM kinase 2.
In assay [4] the target is Protein kinase C alpha type (Homo sapiens, UniProt P17252). As to the kind of experiment: Inhibition of PKCalpha.
Assay [5] has as its target Vascular endothelial growth factor receptor 2 (Homo sapiens, UniProt P35968). As to the kind of experiment: Inhibition of KDR.
Assay [6] addresses Protein kinase C beta type (Homo sapiens, UniProt P05771). In words: Inhibition of PKCbeta.
Assay [7] can be described thus: Inhibition Cdk1/cyclin E.
The target of assay [8] is Proto-oncogene tyrosine-protein kinase Src (Homo sapiens, UniProt P12931). As to the kind of experiment: Inhibition of Src. To be noted: read-out: IC50.
Assay [9] concerns the target Inhibitor of nuclear factor kappa-B kinase subunit beta (Homo sapiens, UniProt O14920). In words: Inhibition of IKK-beta.
The target of assay [10] is Mitogen-activated protein kinase 10 (Homo sapiens, UniProt P53779).
The target of assay [11] is Dual specificity mitogen-activated protein kinase kinase 1 (Homo sapiens, UniProt Q02750).
Assay [12] in a line: Inhibition of CaM-K1.
In assay [13] the target is Calcium/calmodulin-dependent protein kinase type IV (Homo sapiens, UniProt Q16566). In words: Inhibition of CaM-K4.
Assay [14] can be described thus: Inhibition of CaM-K2.
Assay [15] addresses Mitogen-activated protein kinase 1 (Homo sapiens, UniProt P28482). In words: Inhibition of ERK2.
Assay [16] has as its target T1, Myosin light chain kinase, smooth muscle (Homo sapiens, UniProt Q15746). In words: Binding affinity at MLCK.
The target of assay [17] is T2, Glycogen synthase kinase-3 beta (Homo sapiens, UniProt P49841). In words: Binding affinity to GSK3-beta.
In assay [18] the target is T2, Glycogen synthase kinase-3 beta. As to the kind of experiment: Inhibition of GSK3-beta. To be noted: read-out: IC50.
The target of assay [19] is Epidermal growth factor receptor (Homo sapiens, UniProt P00533).
In assay [20] the target is T1, Myosin light chain kinase, smooth muscle. In words: Inhibition of myosin light chain kinase.
The nature of assay [21]: Inhibition of Cdk1/cyclin A.
Assay [22] in a line: Inhibition of Cdk4/cyclin D.
Assay [23] concerns the target Protein kinase C delta type (Homo sapiens, UniProt Q05655). As to the kind of experiment: Inhibition of PKCdelta.
Assay [24] is described as follows: Inhibition of SGK.
The target in a further assay is Ephrin type-B receptor 3 (Homo sapiens, UniProt P54753). As to the kind of experiment: Inhibition of EphB3.
The target of assay [25] is Tyrosine-protein kinase Fyn (Homo sapiens, UniProt P06241). As to the kind of experiment: Inhibition of Fyn.
Assay [26] concerns the target RAC-alpha serine/threonine-protein kinase (Homo sapiens, UniProt P31749). As to the kind of experiment: Inhibition of AKT.
For assay [27], the target named is Cyclin-dependent kinase 1 (Homo sapiens, UniProt P06493). In words: Inhibition of Cdk1.
The target in assay [28] is Serine-protein kinase ATM (Homo sapiens, UniProt Q13315). As to the kind of experiment: Inhibition of ATM.
The target of assay [29] is Serine/threonine-protein kinase ATR (Homo sapiens, UniProt Q13535). As to the kind of experiment: Inhibition of ATR.
The nature of assay [30]: Inhibition of Cdk5/p35.
Assay [31] has as its target T3, Protein kinase C epsilon type (Homo sapiens, UniProt Q02156).
T3 sequence (Q02156 whole entry): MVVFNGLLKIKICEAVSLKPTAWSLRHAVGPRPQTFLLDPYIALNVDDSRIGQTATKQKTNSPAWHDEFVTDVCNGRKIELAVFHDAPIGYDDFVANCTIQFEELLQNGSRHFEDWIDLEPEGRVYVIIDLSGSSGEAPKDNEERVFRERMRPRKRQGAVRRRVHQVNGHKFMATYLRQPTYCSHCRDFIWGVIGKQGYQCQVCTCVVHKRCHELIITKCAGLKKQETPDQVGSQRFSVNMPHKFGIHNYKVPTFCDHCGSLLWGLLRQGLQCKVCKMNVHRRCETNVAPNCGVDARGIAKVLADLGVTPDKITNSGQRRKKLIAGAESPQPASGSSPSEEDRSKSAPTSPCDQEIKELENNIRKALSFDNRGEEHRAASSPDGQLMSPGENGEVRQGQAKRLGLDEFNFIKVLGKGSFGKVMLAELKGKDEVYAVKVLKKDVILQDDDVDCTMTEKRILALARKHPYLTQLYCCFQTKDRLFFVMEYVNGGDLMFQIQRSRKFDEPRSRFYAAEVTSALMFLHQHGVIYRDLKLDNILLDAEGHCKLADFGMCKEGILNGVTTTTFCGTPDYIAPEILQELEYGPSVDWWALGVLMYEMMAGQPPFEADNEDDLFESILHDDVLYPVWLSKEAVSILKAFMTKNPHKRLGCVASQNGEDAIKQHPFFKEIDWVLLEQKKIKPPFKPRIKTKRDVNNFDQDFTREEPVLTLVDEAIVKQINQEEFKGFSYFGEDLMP
As to the kind of experiment: Inhibition of PKCepsilon.

T2 sequence (P49841 whole entry): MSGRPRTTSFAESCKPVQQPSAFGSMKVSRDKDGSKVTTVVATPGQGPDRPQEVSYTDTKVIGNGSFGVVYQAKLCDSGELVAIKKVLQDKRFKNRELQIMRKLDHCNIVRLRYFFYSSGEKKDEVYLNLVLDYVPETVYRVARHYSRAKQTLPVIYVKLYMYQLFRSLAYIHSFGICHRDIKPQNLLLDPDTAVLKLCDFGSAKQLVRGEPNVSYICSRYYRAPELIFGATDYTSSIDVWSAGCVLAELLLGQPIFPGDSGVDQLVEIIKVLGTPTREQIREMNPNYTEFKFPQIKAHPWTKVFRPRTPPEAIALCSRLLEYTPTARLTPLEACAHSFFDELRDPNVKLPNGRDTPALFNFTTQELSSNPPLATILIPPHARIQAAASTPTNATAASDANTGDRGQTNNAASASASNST
Serine-protein kinase ATM, sequence (Q13315 whole entry): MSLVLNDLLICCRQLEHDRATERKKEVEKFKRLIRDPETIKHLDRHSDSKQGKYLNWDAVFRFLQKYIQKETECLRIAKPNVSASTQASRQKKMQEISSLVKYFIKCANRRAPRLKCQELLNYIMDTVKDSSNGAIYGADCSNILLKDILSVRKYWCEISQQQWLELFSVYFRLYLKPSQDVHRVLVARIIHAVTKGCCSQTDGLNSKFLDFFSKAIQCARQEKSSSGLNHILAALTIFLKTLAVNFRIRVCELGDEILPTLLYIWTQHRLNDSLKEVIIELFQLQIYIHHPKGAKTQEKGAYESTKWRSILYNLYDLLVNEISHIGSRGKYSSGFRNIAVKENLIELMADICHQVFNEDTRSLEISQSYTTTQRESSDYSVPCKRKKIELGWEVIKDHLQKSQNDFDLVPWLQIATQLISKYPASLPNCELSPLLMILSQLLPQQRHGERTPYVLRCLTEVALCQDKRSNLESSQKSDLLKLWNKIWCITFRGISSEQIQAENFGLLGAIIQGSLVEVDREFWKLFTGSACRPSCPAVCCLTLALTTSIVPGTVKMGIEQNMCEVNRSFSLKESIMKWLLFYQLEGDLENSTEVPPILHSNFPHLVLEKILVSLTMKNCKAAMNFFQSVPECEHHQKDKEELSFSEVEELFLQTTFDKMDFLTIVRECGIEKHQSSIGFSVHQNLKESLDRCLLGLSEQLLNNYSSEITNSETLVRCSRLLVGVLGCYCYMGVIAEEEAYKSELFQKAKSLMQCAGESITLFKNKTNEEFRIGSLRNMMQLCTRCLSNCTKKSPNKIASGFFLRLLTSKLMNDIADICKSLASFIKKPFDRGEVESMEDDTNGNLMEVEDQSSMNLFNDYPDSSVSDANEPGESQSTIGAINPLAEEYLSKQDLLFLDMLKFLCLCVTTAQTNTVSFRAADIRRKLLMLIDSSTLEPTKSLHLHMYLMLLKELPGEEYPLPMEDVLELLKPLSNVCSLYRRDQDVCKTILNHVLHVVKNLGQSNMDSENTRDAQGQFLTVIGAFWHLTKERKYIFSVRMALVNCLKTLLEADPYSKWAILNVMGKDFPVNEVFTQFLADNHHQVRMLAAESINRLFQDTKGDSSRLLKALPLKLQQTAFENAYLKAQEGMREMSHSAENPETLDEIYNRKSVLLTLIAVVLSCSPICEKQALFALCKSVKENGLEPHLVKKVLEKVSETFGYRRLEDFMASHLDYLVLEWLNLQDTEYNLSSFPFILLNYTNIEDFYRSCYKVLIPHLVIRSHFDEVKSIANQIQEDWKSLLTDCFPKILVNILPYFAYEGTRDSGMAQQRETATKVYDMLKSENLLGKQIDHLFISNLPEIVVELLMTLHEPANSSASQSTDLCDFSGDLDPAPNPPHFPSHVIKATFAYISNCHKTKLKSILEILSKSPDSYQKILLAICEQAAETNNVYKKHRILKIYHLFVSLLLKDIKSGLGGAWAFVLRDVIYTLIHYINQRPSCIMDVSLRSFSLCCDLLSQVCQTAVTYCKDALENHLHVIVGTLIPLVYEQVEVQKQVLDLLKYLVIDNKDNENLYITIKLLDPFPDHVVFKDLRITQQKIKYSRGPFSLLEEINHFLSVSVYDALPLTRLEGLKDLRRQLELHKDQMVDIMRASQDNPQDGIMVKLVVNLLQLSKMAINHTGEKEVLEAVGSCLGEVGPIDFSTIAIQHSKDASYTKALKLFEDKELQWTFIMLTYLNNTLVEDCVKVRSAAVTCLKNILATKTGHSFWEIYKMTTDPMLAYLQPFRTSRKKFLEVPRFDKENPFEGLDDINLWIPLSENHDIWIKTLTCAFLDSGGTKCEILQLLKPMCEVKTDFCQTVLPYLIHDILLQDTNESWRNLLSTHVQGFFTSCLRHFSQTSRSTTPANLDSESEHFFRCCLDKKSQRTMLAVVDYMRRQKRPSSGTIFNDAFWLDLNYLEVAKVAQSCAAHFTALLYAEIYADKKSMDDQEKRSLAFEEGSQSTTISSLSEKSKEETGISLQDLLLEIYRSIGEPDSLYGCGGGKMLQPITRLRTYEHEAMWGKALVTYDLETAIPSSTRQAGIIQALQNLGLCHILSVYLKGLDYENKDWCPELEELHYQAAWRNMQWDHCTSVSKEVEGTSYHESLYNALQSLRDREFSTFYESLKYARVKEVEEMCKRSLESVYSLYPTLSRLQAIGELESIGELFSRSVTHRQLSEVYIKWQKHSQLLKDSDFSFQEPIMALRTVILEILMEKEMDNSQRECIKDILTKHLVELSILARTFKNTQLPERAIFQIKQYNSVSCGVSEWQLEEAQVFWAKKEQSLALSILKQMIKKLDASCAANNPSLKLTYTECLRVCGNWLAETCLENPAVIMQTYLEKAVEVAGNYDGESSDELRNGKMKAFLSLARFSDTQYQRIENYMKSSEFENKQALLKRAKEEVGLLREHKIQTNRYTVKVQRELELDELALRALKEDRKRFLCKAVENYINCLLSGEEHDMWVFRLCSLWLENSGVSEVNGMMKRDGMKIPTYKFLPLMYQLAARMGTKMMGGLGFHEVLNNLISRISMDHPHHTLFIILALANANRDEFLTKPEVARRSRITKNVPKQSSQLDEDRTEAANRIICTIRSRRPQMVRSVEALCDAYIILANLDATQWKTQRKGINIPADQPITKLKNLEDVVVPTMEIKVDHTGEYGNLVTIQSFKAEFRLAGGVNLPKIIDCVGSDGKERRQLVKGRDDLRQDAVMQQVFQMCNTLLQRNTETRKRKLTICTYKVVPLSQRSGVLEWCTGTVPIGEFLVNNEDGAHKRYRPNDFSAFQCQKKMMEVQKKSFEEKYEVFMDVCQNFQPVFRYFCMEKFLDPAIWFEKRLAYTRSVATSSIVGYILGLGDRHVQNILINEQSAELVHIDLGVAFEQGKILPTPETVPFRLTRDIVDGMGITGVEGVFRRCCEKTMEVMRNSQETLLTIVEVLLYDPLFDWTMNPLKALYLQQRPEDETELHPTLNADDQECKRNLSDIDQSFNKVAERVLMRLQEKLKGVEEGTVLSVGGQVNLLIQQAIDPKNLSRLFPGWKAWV
Inhibitor of nuclear factor kappa-B kinase subunit beta, sequence (O14920 whole entry): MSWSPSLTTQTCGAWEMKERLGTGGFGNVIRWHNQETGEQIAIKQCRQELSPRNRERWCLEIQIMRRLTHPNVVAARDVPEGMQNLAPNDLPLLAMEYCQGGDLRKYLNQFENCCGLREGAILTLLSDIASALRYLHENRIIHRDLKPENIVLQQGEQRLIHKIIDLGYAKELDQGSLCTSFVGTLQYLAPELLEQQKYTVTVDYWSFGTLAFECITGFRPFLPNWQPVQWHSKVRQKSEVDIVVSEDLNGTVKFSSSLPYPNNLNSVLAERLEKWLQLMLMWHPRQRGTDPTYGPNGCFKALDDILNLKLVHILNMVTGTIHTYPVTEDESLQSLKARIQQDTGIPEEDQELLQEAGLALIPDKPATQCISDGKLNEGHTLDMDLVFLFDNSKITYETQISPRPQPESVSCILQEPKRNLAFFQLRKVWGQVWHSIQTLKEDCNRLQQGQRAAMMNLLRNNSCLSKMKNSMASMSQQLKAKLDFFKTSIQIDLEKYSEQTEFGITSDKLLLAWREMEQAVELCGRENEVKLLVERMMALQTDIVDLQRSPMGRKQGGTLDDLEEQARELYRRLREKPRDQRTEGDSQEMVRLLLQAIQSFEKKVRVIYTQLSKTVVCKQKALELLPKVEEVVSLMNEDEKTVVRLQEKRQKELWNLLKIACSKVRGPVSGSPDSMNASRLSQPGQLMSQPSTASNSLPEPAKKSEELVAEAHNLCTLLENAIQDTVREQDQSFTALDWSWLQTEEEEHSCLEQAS

In general, IC50 refers to the point on the concentration scale where inhibition reaches its midpoint. The molecule `COc1c(C=O)c(O)cc2c1C(=O)c1ccccc1C2=O` [DAMNACANTHAL] registered an IC50 in assay [1] of 620 nM.
Turning to `Oc1cccc(-c2nc(N3CCOCC3)c3sccc3n2)c1`, the IC50 with A-375 was 580 nM; in assay [2], less than 3000 nM; in assay [3], 370 nM; in [4], no less than 3.4 µM; in assay [5], no less than 3.4 µM.
Turning to `Cn1c2ccccc2c2c3c(c4c5ccccc5n(CCC#N)c4c21)CNC3=O` [GO-6976], the IC50 in assay [4] came out at 0.002 µM; in assay [6], 2 nM.
Consider `O=C1Nc2ccccc2/C1=C1/Nc2ccccc2/C1=N\OCC(O)CO` (configuration not stated), for which the 50% inhibitory concentration (IC50) came out at 210 nM in assay [7] and 430 nM in assay [8].
Consider `NC(=O)Nc1sc(-c2ccccc2)cc1C(N)=O`, for which, in assay [9], the IC50 is 13 nM.
With `Oc1c2ccccc2c2c3c(cccc13)N=N2` [SP-600125], the IC50 in [10] turned out to be 90 nM.
In turn, `O=C1C=CC(=O)c2ccccc21` [NAPHTHOQUINONE] displayed an IC50 in assay [11] of 380 nM.
For `CC(=O)O.O=C(O)c1ccc2c3c1cccc3c(=O)n1c3ccccc3nc21`, the IC50 was greater than 10000 ng/mL in [12]; greater than 26.7 µM in assay [13]; 10 µg/mL in assay [14]; greater than 26.7 µM in assay [15]; 26.7 µM in assay [16].
For orientation: Kd means the constant that tells how readily two partners part at equilibrium. Turning to `CC(C)n1cnc2c(Nc3cccc(Cl)c3)nc(NCCO)nc21`, the Kd in assay [17] amounted to 126 nM. Moreover, the IC50 in assay [18] is 30 nM.
Turning to `CCn1cnc2c(N)nc(N(c3cccc(Cl)c3)[C@@H]3CCCC[C@@H]3N)nc21` (relative stereo), the figures for the IC50 in assay [4] and in [19] were 6.1 µM and greater than 10 µM, respectively.
The molecule `O=S(=O)(c1cccc2cnccc12)N1CCCNCC1` [FASUDIL] yielded an IC50 in [20] of 3.6 µM.
By Ki is commonly meant a measure of affinity in units of concentration, obtained from inhibition or displacement. High values mean lower affinity, low ones higher affinity. With `O=C1N=C(NCc2cccs2)S/C1=C/c1ccc2ncccc2c1`, the inhibition constant Ki in [21] is 110 nM; in assay [22], greater than 2000 nM; in [23] it was 318 nM; in assay [24], 497 nM; at Ephrin type-B receptor 3, greater than 2000 nM; in [25], greater than 2000 nM. In addition, the Ki in [4] and in assay [26] was greater than 2000 nM each time.
`O=Nc1c(-c2c(O)[nH]c3ccc(I)cc23)[nH]c2ccccc12` returned an IC50 in assay [27] of 5 nM.
Regarding `NC(N)=S` [THIOUREA], the IC50 in assay [28] was 0.2 µM; in assay [29], 200 nM.
Take `CC(C)[C@H](CO)Nc1nc(Nc2cccc(Cl)c2)c2ncn(C(C)C)c2n1` [PURVALANOLA]: in assay [30], the IC50 stood at 75 nM.
Consider `CCN(CC)CCCCNc1ncc2cc(-c3cc(OC)cc(OC)c3)c(NC(=O)NC(C)(C)C)nc2n1` [PD-173074], for which half-maximal inhibition in assay [28] (IC50) required 17.6 µM.
`COCc1cc(O)c(O)c(O)c1-c1c(COC)cc(O)c(O)c1O` yielded an IC50 in [31] of 175 nM.

Source of the values: ChEMBL document CHEMBL1145498, “A systematic interaction map of validated kinase inhibitors with Ser/Thr kinases” (Proc Natl Acad Sci U S A, 2007).
